For the experiment, the system named is corn leaf discs (variety Multitop). In words: Dark induced senescence of corn leaf. The note with it: Zea mays, foliar, 192 h, 100 μM-0.0001 μM, 0.5% DMSO, 23° C., 8 days, image analysis, read-out: IC50 (concentration at which 50% senescence was achieved), dark induced senescence of corn leaf. The protocol:
It is known that strigolactones regulate (accelerate) leaf senescence, potentially through D14 receptor signaling. Corn plants of variety Multitop were grown in a greenhouse with relative 75% humidity and at 23-25° C. for 6 weeks. 1.4 cm diameter leaf discs were placed into 24-well plates containing test compounds in a concentration gradient (100 μM-0.0001 μM) at a final concentration of 0.5% DMSO. Each concentration was tested in 12 replicates. Plates were sealed with seal foil. The foil was pierced to provide gas exchange in each well. The plates were placed into the completely dark climatic chamber. Plates were incubated in the chamber with 75% humidity and at 23° C. for 8 days. On days 0, 5, 6, 7 and 8 photographs were taken of each plate, and image analysis conducted with a macro developed using the ImageJ software. The image analysis was used to determine the concentration at which 50% senescence was achieved (IC50), see Table 4. The lower the value, the higher senescence induction potency.

As for `CC1=CC(O/C=C2/C(=O)OC3Oc4ccccc4C23)OC1=O` (centres unmarked) [Compound I-1, (1E)-1-[(4-methyl-5-oxo-2H-furan-2-yl)oxymethylene]-3a,8b-dihydrofuro[2,3-b]benzofuran-2-one], the IC50 worked out at 30 nM.

As to `CC1=C(C)C(O/C=C2/C(=O)OC3Oc4ccccc4C23)OC1=O` (centres unmarked) [Compound I-2, (1E)-1-[(3,4-dimethyl-5-oxo-2H-furan-2-yl)oxymethylene]-3a,8b-dihydrofuro[2,3-b]benzofuran-2-one], the IC50 turned out to be 15 nM.

Turning to `CC1=C(C)C(O/C=C2/C(=O)OC3Sc4ccccc4C23)OC1=O` (centres unmarked) [Compound I-8, (1E)-1-[(3,4-dimethyl-5-oxo-2H-furan-2-yl)oxymethylene]-3a,8b-dihydrobenzothiopheno[2,3-b]furan-2-one], the IC50 is 40 nM.

As for `CC1=CC(O/C=C2/C(=O)OC3C2c2ccccc2[S+]3[O-])OC1=O` (centres unmarked) [Compound I-13, (1E)-1-[(4-methyl-5-oxo-2H-furan-2-yl)oxymethylene]-4-oxo-3a,8b-dihydrobenzothiopheno[2,3-b]furan-2-one], the IC50 was 15 nM.

Consider `CC1=CC(O/C=C2/C(=O)OC3COc4ccccc4C23)OC1=O` (centres unmarked) [Compound I-31, (1E)-1-[(4-methyl-5-oxo-2H-furan-2-yl)oxymethylene]-4,9b-dihydro-3aH-furo[2,3-c]chromen-2-one], for which the IC50 turned out to be 30 nM.

The values are drawn from US20220361500A1, “STRIGOLACTONE DERIVATIVES AS PLANT GROWTH REGULATOR COMPOUNDS” (SYNGENTA CROP PROTECTION AG, priority 2020, published 2022).
